Assay [1] addresses T1, 5-hydroxytryptamine receptor 3A (Homo sapiens, UniProt P46098).
T1 sequence (P46098 whole entry): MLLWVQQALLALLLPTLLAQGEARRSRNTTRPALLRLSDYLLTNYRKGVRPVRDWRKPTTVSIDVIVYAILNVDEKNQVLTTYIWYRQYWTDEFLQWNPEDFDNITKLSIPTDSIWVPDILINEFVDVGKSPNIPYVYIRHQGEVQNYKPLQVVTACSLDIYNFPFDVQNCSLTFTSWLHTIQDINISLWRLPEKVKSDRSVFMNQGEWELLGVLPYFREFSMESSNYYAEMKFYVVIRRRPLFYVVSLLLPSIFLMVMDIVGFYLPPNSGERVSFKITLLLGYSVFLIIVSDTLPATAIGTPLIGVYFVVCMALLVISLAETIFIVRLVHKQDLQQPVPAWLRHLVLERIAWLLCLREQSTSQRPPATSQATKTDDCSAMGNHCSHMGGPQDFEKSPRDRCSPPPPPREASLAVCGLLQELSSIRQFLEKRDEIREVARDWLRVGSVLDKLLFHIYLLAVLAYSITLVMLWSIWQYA
It is filed as functional.

A further assay has as its target T2, Adenosine receptor A1 (Homo sapiens, UniProt P30542).
T2 sequence (P30542 whole entry): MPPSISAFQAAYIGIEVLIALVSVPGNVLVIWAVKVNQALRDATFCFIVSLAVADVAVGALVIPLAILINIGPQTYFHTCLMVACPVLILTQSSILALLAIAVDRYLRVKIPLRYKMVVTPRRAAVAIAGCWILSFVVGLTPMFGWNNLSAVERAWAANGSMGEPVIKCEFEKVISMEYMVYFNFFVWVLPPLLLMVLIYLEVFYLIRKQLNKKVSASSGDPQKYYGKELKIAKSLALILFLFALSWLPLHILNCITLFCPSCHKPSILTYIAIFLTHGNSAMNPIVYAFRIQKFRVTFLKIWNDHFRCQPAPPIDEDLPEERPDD

Assay [2] has as its target cGMP-inhibited 3',5'-cyclic phosphodiesterase 3A (Homo sapiens, UniProt Q14432). It is filed as functional.
For assay [3], the target named is T3, Prostaglandin G/H synthase 1 (Rattus norvegicus, UniProt Q63921).
T3 sequence (Q63921 whole entry): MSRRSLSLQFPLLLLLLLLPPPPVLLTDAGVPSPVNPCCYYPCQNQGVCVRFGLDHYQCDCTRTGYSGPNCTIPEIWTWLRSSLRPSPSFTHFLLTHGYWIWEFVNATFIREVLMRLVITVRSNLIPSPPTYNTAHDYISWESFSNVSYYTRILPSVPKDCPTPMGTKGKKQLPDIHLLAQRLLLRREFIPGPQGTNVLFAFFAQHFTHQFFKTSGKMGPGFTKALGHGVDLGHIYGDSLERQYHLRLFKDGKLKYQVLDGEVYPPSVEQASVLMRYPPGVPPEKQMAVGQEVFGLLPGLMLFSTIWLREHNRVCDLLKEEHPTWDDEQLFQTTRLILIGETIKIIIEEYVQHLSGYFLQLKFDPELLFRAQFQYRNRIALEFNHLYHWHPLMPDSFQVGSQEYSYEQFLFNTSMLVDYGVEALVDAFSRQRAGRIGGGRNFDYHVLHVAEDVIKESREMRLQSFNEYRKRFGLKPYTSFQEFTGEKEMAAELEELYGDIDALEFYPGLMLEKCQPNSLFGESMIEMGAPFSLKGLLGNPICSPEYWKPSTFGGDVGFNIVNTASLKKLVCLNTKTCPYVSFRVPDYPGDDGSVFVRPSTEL
Format: functional.

Assay [4] deals with T4, 5-hydroxytryptamine receptor 1A (Homo sapiens, UniProt P08908).
T4 sequence (P08908 whole entry): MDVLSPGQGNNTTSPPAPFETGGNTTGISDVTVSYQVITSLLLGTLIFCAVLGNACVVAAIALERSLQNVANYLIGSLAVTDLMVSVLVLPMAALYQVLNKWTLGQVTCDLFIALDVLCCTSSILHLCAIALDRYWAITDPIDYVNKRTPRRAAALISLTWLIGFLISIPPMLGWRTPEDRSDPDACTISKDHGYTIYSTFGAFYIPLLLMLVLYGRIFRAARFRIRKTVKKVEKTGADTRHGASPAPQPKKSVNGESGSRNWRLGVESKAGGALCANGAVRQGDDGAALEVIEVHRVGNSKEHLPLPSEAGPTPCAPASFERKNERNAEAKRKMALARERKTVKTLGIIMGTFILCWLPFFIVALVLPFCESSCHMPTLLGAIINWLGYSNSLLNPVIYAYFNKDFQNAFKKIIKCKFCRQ
Format: functional, cell-based.

For assay [5], the target named is T5, 5-hydroxytryptamine receptor 2C (Homo sapiens, UniProt P28335).
T5 sequence (P28335 whole entry): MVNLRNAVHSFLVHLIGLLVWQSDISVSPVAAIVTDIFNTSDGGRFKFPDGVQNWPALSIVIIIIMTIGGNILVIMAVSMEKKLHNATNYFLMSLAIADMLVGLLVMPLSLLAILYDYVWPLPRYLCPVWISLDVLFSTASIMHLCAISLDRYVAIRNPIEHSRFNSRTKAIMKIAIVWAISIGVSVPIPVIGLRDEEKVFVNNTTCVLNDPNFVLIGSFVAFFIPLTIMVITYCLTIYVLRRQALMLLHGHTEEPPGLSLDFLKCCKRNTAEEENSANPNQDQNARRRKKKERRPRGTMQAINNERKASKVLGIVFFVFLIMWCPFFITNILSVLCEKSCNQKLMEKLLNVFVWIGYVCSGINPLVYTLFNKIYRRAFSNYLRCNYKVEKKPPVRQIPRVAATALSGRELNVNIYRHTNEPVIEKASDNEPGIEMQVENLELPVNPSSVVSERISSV

Assay [6] deals with T6, Alpha-2C adrenergic receptor (Homo sapiens, UniProt P18825).
T6 sequence (P18825 whole entry): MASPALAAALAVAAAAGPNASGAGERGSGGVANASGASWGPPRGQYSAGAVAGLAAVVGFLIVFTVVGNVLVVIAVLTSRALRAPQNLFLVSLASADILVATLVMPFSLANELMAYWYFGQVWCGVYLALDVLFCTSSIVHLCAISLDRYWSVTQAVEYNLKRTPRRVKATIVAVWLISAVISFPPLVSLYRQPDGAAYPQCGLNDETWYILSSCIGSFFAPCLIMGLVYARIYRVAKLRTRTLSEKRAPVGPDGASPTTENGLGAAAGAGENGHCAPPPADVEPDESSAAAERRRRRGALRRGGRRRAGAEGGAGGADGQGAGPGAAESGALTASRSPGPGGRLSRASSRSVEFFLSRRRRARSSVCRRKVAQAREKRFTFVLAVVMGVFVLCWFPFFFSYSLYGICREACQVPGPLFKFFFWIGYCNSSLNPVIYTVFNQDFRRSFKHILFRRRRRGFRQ
Format: functional.

Values joined by “and” are separate entries in the source; they are usually repeats but may differ in a detail not shown here. Identical values can stand only once. A value given as a limit tells only on which side of the number the result lay.
Note: assay procedure not described here.

Sequence of cGMP-inhibited 3',5'-cyclic phosphodiesterase 3A (Q14432 whole entry): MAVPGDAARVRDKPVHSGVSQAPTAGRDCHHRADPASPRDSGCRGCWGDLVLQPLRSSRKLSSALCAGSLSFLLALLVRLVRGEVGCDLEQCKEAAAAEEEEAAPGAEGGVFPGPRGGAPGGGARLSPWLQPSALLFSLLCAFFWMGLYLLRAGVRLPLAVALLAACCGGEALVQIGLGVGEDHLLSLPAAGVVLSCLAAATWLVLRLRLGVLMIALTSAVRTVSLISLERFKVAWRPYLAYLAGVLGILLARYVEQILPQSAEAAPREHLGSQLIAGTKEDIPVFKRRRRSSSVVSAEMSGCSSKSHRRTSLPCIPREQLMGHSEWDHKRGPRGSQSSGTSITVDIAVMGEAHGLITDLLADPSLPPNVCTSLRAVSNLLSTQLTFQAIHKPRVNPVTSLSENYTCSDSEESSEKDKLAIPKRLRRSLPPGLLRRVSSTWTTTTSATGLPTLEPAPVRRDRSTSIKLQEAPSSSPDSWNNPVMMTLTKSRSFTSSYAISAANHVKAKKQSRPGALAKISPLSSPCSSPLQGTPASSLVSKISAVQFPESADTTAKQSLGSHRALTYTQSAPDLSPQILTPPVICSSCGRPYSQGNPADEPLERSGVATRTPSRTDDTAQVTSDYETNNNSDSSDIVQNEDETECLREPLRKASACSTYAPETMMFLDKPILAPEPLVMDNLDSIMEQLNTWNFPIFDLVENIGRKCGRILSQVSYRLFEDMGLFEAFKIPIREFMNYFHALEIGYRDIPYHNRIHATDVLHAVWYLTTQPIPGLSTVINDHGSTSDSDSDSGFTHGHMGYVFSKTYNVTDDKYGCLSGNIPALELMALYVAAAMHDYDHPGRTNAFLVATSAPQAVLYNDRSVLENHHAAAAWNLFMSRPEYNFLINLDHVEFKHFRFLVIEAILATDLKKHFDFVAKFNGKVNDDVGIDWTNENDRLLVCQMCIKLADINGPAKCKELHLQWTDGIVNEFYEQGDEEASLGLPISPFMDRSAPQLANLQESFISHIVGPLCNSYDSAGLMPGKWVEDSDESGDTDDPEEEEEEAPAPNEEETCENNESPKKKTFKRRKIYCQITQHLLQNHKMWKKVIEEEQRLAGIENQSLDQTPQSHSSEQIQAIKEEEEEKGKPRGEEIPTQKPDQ

One may read the AC50 as the concentration at which the activity in the assay is half-maximal. High values mean weaker potency, low ones greater potency. As for `CC1OC2(CS1)CN1CCC2CC1` (stereo not given) [CEVIMELINE], the AC50 is over 30 µM in assay [1]; over 10 µM at Adenosine receptor A1; over 30 µM in assay [2]; over 10 µM in assay [3]; over 10 µM in assay [4]; over 30 µM in assay [5]. The compound also came in with an AC50 in assay [6] of over 30 µM.
In the case of `CNC1=Nc2ccc(Cl)cc2C(c2ccccc2)=[N+]([O-])C1` [CHLORDIAZEPOXIDE], the AC50 (in assay [1]; on Adenosine receptor A1; in assay [2]; in assay [3]; in assay [4]; in assay [5]) was over 30 µM throughout. Also, in assay [6], the AC50 is over 10 µM.
For the compound `COc1cc(N)c(Cl)cc1C(=O)NC1CCN(Cc2ccccc2)CC1` [CLEBOPRIDE], the AC50 in assay [1] was 8.6 µM; at Adenosine receptor A1 it was over 30 µM; in assay [2], 7.7 µM; in assay [3] it was 14 µM; in assay [4], over 30 µM; in assay [5], 13 µM. For the same compound, half-maximal activity in assay [6] (AC50) was put at 2.1 µM.
As to `Nc1ncn([C@H]2C[C@H](O)[C@@H](CO)O2)c(=O)n1` [DECITABINE], the AC50 (in assay [1]; on Adenosine receptor A1; in assay [2]; in assay [3]; in assay [4]; in assay [5]) was over 30 µM throughout. This compound showed an AC50 in assay [6] of over 30 µM.
In the case of `CC(C)(C)C(=O)OCC(=O)[C@H]1CC[C@H]2[C@@H]3CCC4=CC(=O)CC[C@]4(C)[C@H]3CC[C@]12C` [DESOXYCORTICOSTERONE PIVALATE], the AC50 is over 30 µM in assay [1]; over 10 µM on Adenosine receptor A1; over 30 µM in assay [2]; over 10 µM in assay [3]; over 10 µM in assay [4]; over 30 µM in assay [5]. Also, the AC50 in assay [6] was over 10 µM.
Take `CC(CCc1ccc(O)cc1)NCCc1ccc(O)c(O)c1` (stereo not given) [DOBUTAMINE]: the half-maximal activity concentration (AC50) in assay [1] was 27 µM; on Adenosine receptor A1 it was over 30 µM; in assay [2], over 30 µM; in assay [3], 5.31 µM; in assay [4], over 30 µM; in assay [5], over 30 µM. The compound also came in with an AC50 in assay [6] of 0.798 µM.
As to `CC(C(=O)O)c1ccc(-c2ccccc2)c(F)c1` (stereo not given) [FLURBIPROFEN], the AC50 in assay [1] is over 10 µM; on Adenosine receptor A1, over 10 µM; in assay [2], over 30 µM; in assay [3], 11 µM; in assay [4], over 10 µM; in assay [5], 2.6 µM. This compound also returned an AC50 in assay [6] of over 10 µM.
In the case of `CCC(=O)O[C@]1(C(=O)SCF)[C@H](C)C[C@H]2[C@@H]3C[C@H](F)C4=CC(=O)C=C[C@]4(C)[C@@]3(F)[C@@H](O)C[C@@]21C` [FLUTICASONE PROPIONATE], the AC50 (in assay [1]; on Adenosine receptor A1; in assay [2]; in assay [3]; in assay [4]; in assay [5]) was over 30 µM in each case. In assay [6], this compound had a concentration at half-maximal activity (AC50) of over 30 µM.
With `C[C@]12CCC(=O)C(O)=C1CC[C@@H]1[C@@H]2CC[C@]2(C)C(=O)CC[C@@H]12` [FORMESTANE], the AC50 (in assay [1]; on Adenosine receptor A1; in assay [2]; in assay [3]; in assay [4]; in assay [5]) was over 30 µM throughout. Further, the AC50 in assay [6] was over 30 µM.
For the compound `C[C@]12CC[C@@H]3c4ccc(O)cc4C[C@@H](CCCCCCCCC[S+]([O-])CCCC(F)(F)C(F)(F)F)[C@H]3[C@@H]1CC[C@@H]2O` (stereo not given in full) [FULVESTRANT], the AC50 (in assay [1]; at Adenosine receptor A1; in assay [2]; in assay [3]; in assay [4]; in assay [5]) was over 30 µM in each case. In assay [6], this compound showed an AC50 of over 30 µM.
Take `CCC1(c2ccccc2)CCC(=O)NC1=O` (stereo not given) [GLUTETHIMIDE]: the AC50 is over 30 µM in assay [1]; over 10 µM on Adenosine receptor A1; over 30 µM in assay [2]; over 10 µM in assay [3]; over 30 µM in assay [4]; over 30 µM in assay [5]. The same compound had an AC50 in assay [6] of over 10 µM.
With `CC(C(=O)O)c1ccc(CC2CCCC2=O)cc1` (stereo not given) [LOXOPROFEN], the AC50 (in assay [1]; on Adenosine receptor A1; in assay [2]; in assay [3]; in assay [4]; in assay [5]) was over 30 µM throughout. For the same compound, the AC50 in assay [6] is over 30 µM.
As to `C[C@H](Cc1ccc(O)c(O)c1)[C@@H](C)Cc1ccc(O)c(O)c1` [MASOPROCOL], the concentration at half-maximal activity (AC50) in assay [1] was over 30 µM; on Adenosine receptor A1, over 30 µM; in assay [2] it was 12 µM and 23 µM and 19 µM; in assay [3], 18 µM and 14 µM and 12 µM; in assay [4], over 10 µM; in assay [5], over 30 µM. Moreover, the AC50 in assay [6] was over 30 µM.
Turning to `OC1(c2ccc(Cl)cc2)c2ccccc2C2=NCCN21` (stereo not given) [MAZINDOL], the AC50 (in assay [1]; at Adenosine receptor A1; in assay [2]; in assay [3]; in assay [4]; in assay [5]) was over 30 µM throughout. The same compound returned a concentration at half-maximal activity (AC50) in assay [6] of over 30 µM.
`CC12CC3CC(C)(C1)CC(N)(C3)C2` [MEMANTINE]: the AC50 in assay [1] is over 30 µM; on Adenosine receptor A1, over 30 µM; in assay [2] it was over 30 µM; in assay [3], over 30 µM; in assay [4], over 10 µM; in assay [5], over 30 µM. In assay [6], this compound gave an AC50 of over 10 µM.
